biological target: T1, EGFR (L858R & T790M) (Homo sapiens, UniProt P00533, L858R/T790M); assay: EGFR (L858R & T790M) inhibition assay, HTRF method; conditions: biochemical HTRF; EGFR (T790M/L858R) 2.5 nM, ATP 5 μM, 60 min room temperature
T1 construct: GST; purchased Proqinase
Procedure: Example 25: Biological Activity: EGFR T790M Assay Protocol
The objective of the experiment is to find the IC50 for the compounds using HTRF method.
Reagents for Enzyme Assay:
1. Enzyme Assay Buffer: 60 mM HEPES (pH 7.4), 50 mM NaCl, 20 mM MgCl2, 5 mM MnCl2, filter using 0.2 µm pore size, store at 4° C.
Supplements (add fresh to the enzyme buffer): Make 1M DTT stock, 5% BSA stock and 0.1M Na3OV4 stored at 4° C. Enzyme assay buffer 50 ml, 1 M DTT 100 μl, 5% BSA 500 μl, 0.1M Na3OV4 50 μl.
2. GST-hEGFR (L858R), active: EGFR (T790M/L858R), active (Proqinase), 3.6 μM stock; 2.5 nM in final assay.
3. Gastrin Precusor-Biotinylated: Gastrin precursor (Tyr87) biotinylated peptide (EEAY*GWM), Cell Signaling Tech 1310, Lot-7, Want final 0.5 μM in assay
4. ATP: 10 mM stock in 100 μl Enzyme assay buffer pH 7.4 prepared freshly, want 5 μM in final assay.
5. Test compounds: Dissolve powders in 100% DMSO to a final stock concentration of 10 mM (volume in μL to add for 10 mM=mg powder×10^5/MW). Final comp concentration in the assay plate is starting at 10 μM.
1. HTRF buffer: 50 mM Tris-HCl, pH-7.5, 100 mM NaCl, 0.1% BSA, 0.05% Tween20, 0.5 mM EDTA, filter using 0.2 µm pore size, store at 4° C.
Phycolink® Streptavidin-Allophycocyanin (SA-APC) Prozyme, Cat. #PJ25S, Lot #896 085, 2.06 mg/mL, APC concentration is 11.6 μM, streptavidin concentration is 15.5 μM. Want 12 nM final in assay (based on streptavidin concentration).
2. Europium-W1024-PT-66 Anti Phospho Tyrosine Antibody: Perkin Elmer (AD0068), monoclonal IgG1 that recognizes phospho tyrosine peptide 100 μg/ml stock. Want 0.1 nM final in assay.
• 1. Make the compound dilution by TECAN as per the above scheme. • 2. Add 16 μl of diluted compound to the assay plate by using TECAN • 3. Add 10 μl of enzyme mix to each well except mins. • 4. Add 20 μl of substrate and ATP mix into each well of the assay plate manually. • 5. Incubate the plate at room temperature for 60 min with shaking. • 6. Meanwhile prepare the HTRF mix and add 75 μl to the HTRF plate. • 7. When the incubation is over, transfer 10 μl of the reaction mixture to the HTRF assay plate and incubate for 30 min at room temperature with shaking. • 8. Take the reading in Pherastar (ext 337 nm, em 665 & 620 nm). • 9. Analyze the results using Graphpad prism after calculation the z factor, signal window and % inhibition to get the IC50.
Compounds having IC50<10 nM are designated as “A”; 10-100 nM are designated as “B”; and >100 nM as “C”.

T1 sequence (P00533 25-1210 T790M/L858R): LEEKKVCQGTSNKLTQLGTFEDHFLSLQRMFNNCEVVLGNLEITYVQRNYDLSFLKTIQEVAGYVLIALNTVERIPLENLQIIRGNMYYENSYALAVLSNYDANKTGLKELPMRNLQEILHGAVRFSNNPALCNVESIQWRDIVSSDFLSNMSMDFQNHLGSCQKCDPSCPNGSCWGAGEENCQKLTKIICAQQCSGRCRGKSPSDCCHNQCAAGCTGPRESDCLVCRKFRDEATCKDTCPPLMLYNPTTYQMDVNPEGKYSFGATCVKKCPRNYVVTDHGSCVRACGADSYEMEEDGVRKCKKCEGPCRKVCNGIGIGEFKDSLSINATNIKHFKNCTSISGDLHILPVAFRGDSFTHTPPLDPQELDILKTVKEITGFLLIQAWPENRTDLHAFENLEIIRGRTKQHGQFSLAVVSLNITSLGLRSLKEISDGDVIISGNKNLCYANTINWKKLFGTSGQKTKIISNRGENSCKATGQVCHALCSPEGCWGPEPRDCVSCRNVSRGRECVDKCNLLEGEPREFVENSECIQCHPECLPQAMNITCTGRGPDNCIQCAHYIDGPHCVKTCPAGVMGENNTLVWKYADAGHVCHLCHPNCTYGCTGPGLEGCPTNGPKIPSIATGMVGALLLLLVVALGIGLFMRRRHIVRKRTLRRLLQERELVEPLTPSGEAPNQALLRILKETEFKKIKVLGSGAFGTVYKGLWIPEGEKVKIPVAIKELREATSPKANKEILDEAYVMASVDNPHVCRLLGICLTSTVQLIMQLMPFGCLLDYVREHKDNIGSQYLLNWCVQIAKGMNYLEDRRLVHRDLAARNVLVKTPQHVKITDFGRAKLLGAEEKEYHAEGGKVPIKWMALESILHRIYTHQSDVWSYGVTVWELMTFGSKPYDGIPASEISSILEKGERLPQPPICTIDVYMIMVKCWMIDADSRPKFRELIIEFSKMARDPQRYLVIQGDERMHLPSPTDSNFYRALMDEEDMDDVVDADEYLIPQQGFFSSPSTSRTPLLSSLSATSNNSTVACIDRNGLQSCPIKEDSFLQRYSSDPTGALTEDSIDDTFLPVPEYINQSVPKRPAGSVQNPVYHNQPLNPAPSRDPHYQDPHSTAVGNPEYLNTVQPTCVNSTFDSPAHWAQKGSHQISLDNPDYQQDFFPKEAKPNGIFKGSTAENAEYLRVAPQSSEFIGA

Row | Compound | IC50 [nM]
1 | C=CC(=O)Nc1cccc(Oc2nc(Nc3cnn(CC(C)(C)O)c3)ncc2Cl)c1 [Compound I-81, N-(3-((5-chloro-2-((1-(2-hydroxy-2-methylpropyl)-1H-pyrazol-4-yl)amino)pyrimidin-4-yl)oxy)phenyl)acrylamide] | > 100
2 | C=CC(=O)Nc1cccc(Nc2nc(Nc3cnn(C4CCC(O)C4)c3)ncc2Cl)c1 (stereo not shown) [Compound I-36, N-(3-((5-chloro-2-((1-(3-hydroxycyclopentyl)-1H-pyrazol-4-yl)amino)pyrimidin-4-yl)amino)phenyl)acrylamide] | 10 to 100
3 | C=CC(=O)Nc1cccc(Nc2nc(Nc3cnn(CCOC)c3)ncc2Cl)c1 [Compound I-20, N-(3-((5-chloro-2-((1-(2-methoxyethyl)-1H-pyrazol-4-yl)amino)pyrimidin-4-yl)amino)phenyl)acrylamide] | 10 to 100
4 | C=CS(=O)(=O)Nc1cc(Nc2nc(Nc3cnn(C4CCN(C)CC4)c3)ncc2Cl)ccc1F [Compound I-64, N-(5-((5-chloro-2-((1-(1-methylpiperidin-4-yl)-1H-pyrazol-4-yl)amino)pyrimidin-4-yl)amino)-2-fluorophenyl)ethenesulfonamide] | 10 to 100
5 | CN1CCC(n2cc(Nc3ncc(Cl)c(Nc4cccc(NC(=O)C=C5CCC5)c4)n3)cn2)CC1 [Compound I-29, N-(3-((5-chloro-2-((1-(1-methylpiperidin-4-yl)-1H-pyrazol-4-yl)amino)pyrimidin-4-yl)amino)phenyl)-2-cyclobutylideneacetamide] | > 100
6 | C=CC(=O)Nc1ccc(F)c(Nc2nc(Nc3cc(C)no3)ncc2Cl)c1 [Compound I-118, N-(3-((5-chloro-2-((3-methylisoxazol-5-yl)amino)pyrimidin-4-yl)amino)-4-fluorophenyl)acrylamide] | 10 to 100
7 | C=CC(=O)NC1CCCC(Nc2nc(Nc3cn(C)nc3Cl)ncc2Cl)C1 (stereo not shown) [Compound I-95, N-(3-((5-chloro-2-((3-chloro-1-methyl-1H-pyrazol-4-yl)amino)pyrimidin-4-yl)amino)cyclohexyl)acrylamide] | 10 to 100
8 | C=CC(=O)Nc1cccc(Nc2nc(Nc3cnn(C)c3)ncc2Cl)n1 [Compound I-75, N-(6-((5-chloro-2-((1-methyl-1H-pyrazol-4-yl)amino)pyrimidin-4-yl)amino)pyridin-2-yl)acrylamide] | 10 to 100
9 | C=CC(=O)Nc1cc(Nc2nc(Nc3cnn(C)c3)ncc2Cl)ccc1OC1CCOC1 (stereo not shown) [Compound I-55, N-(5-((5-chloro-2-((1-methyl-1H-pyrazol-4-yl)amino)pyrimidin-4-yl)amino)-2-((tetrahydrofuran-3-yl)oxy)phenyl)acrylamide] | > 100
10 | C=CC(=O)Nc1cccc(Nc2nc(Nc3cnn(C)c3)nc(C)c2Cl)c1 [Compound I-59, N-(3-((5-chloro-6-methyl-2-((1-methyl-1H-pyrazol-4-yl)amino)pyrimidin-4-yl)amino)phenyl)acrylamide] | > 100
11 | C=CC(=O)Nc1cccc(Nc2nc(Nc3cn(C)nc3C)ncc2Cl)c1 [Compound I-34, N-(3-((5-chloro-2-((1,3-dimethyl-1H-pyrazol-4-yl)amino)pyrimidin-4-yl)amino)phenyl)acrylamide] | < 10
12 | C=CC(=O)Nc1cccc(Oc2nc(Nc3cnn(C4CCN(C)CC4)c3)ncc2Cl)c1 [Compound I-77, N-(3-((5-chloro-2-((1-(1-methylpiperidin-4-yl)-1H-pyrazol-4-yl)amino)pyrimidin-4-yl)oxy)phenyl)acrylamide] | 10 to 100
13 | C=CC(=O)Nc1cccc(C(C)Nc2nc(Nc3cnn(C)c3)ncc2Cl)c1 (stereo not shown) [Compound I-56, N-(3-(1-((5-chloro-2-((1-methyl-1H-pyrazol-4-yl)amino)pyrimidin-4-yl)amino)ethyl)phenyl)acrylamide] | > 100
14 | CN(C)C/C=C/C(=O)Nc1cccc(Nc2nc(Nc3cnn(C4CCN(C)CC4)c3)ncc2Cl)c1 [Compound I-53, (E)-N-(3-((5-chloro-2-((1-(1-methylpiperidin-4-yl)-1H-pyrazol-4-yl)amino)pyrimidin-4-yl)amino)phenyl)-4-(dimethylamino)but-2-enamide] | > 100
15 | CN(C)C/C=C/C(=O)NC1CCCC(Nc2nc(Nc3cnn(C)c3)ncc2Cl)C1 (stereo not shown) [Compound I-101, (E)-N-(3-((5-chloro-2-((1-methyl-1H-pyrazol-4-yl)amino)pyrimidin-4-yl)amino)cyclohexyl)-4-(dimethylamino)but-2-enamide] | > 100
16 | C=CC(=O)NC1CCCC(Nc2nc(Nc3cnn(C)c3)ncc2C)C1 (stereo not shown) [Compound I-100, N-(3-((5-methyl-2-((1-methyl-1H-pyrazol-4-yl)amino)pyrimidin-4-yl)amino)cyclohexyl)acrylamide] | > 100
17 | CN(C)C/C=C/C(=O)N[C@H]1CCC[C@H](CNc2nc(Nc3cnn(C)c3)ncc2Cl)C1 (single isomer, unassigned) [I-103 (diastereomer 2)] | > 100
18 | C=CC(=O)Nc1cccc(Nc2nc(Nc3cnn(Cc4cccc(C)n4)c3)ncc2Cl)c1 [Compound I-52, N-(3-((5-chloro-2-((1-((6-methylpyridin-2-yl)methyl)-1H-pyrazol-4-yl)amino)pyrimidin-4-yl)amino)phenyl)acrylamide] | > 100
19 | C=CC(=O)Nc1cccc(Nc2nc(Nc3cnn(C4CCN(C)CC4)c3)ncc2Cl)c1 [Compound I-1, N-(3-((5-chloro-2-((1-(1-methylpiperidin-4-yl)-1H-pyrazol-4-yl)amino)pyrimidin-4-yl)amino)phenyl)acrylamide] | < 10
20 | C=CC(=O)Nc1cccc(Oc2nc(Nc3cnn(CCN(C)C)c3)ncc2Cl)c1 [Compound I-80, N-(3-((5-chloro-2-((1-(2-(dimethylamino)ethyl)-1H-pyrazol-4-yl)amino)pyrimidin-4-yl)oxy)phenyl)acrylamide] | 10 to 100
21 | C=CC(=O)N1CCC(Oc2nc(Nc3cnn(C)c3)ncc2Cl)C1 (single isomer, unassigned) [II-10 (Enantiomer 1), 1-(3-((5-chloro-2-((1-methyl-1H-pyrazol-4-yl)amino)pyrimidin-4-yl)oxy)pyrrolidin-1-yl)prop-2-en-1-one] | > 100
22 | CN(C)C/C=C/C(=O)N1CCCC(Nc2nc(Nc3cnn(C)c3)ncc2Cl)C1 (single isomer, unassigned) [II-3 (Enantiomer 1), (E)-1-(3-((5-chloro-2-((1-methyl-1H-pyrazol-4-yl)amino)pyrimidin-4-yl)amino)piperidin-1-yl)-4-(dimethylamino)but-2-en-1-one] | > 100
23 | C=CC(=O)Nc1cccc(Nc2nc(Nc3cnn(S(=O)(=O)C4CC4)c3)ncc2Cl)c1 [Compound I-22, N-(3-((5-chloro-2-((1-(cyclopropylsulfonyl)-1H-pyrazol-4-yl)amino)pyrimidin-4-yl)amino)phenyl)acrylamide] | 10 to 100
24 | C#CC(=O)Nc1cccc(Nc2nc(Nc3cnn(C)c3)ncc2Cl)c1 [Compound I-32, N-(3-((5-chloro-2-((1-methyl-1H-pyrazol-4-yl)amino)pyrimidin-4-yl)amino)phenyl)propiolamide] | 10 to 100
25 | C=CC(=O)Nc1cccc(Nc2nc(Nc3cnn(C4CCN(C)CC4)c3)ncc2C)c1 [Compound I-13, N-(3-((5-methyl-2-((1-(1-methylpiperidin-4-yl)-1H-pyrazol-4-yl)amino)pyrimidin-4-yl)amino)phenyl)acrylamide] | 10 to 100
26 | C=CC(=O)Nc1ccc(F)c(Nc2nc(Nc3cn(C)nc3C)ncc2Cl)c1 (single isomer, unassigned) [Compound I-70, N-(3-((5-chloro-2-((1,3-dimethyl-1H-pyrazol-4-yl)amino)pyrimidin-4-yl)amino)-4-fluorophenyl)acrylamide] | < 10
27 | C=CC(=O)Nc1cccc(Nc2nc(Nc3cn(C)nc3C)ncc2Cl)n1 (single isomer, unassigned) [Compound I-73, N-(6-((5-chloro-2-((1,3-dimethyl-1H-pyrazol-4-yl)amino)pyrimidin-4-yl)amino)pyridin-2-yl)acrylamide] | 10 to 100
28 | C=CC(=O)N[C@H]1CCC[C@@H](Nc2nc(Nc3cnn(C)c3)ncc2Cl)C1 (single isomer, unassigned) [I-104 (Enantiomer 3)] | 10 to 100

Reference: patent US10273224B2, “Substituted pyrimidine compounds, compositions and medicinal applications thereof” (JUBILANT BIOSYS LIMITED, priority 2013, dated 2019)
